Earlier results in patent US20140080846A1, “Method of treating orphan respiratry diseases using doxofylline” (priority 2012, published 2014).

How the values were obtained:
[1] = for subjects dropped out of the study due to side effects: large randomized clinical study, 12 week testing period, asthma patients
[2] = intravenous, CF patients

SMILES	efficacy in treating chronic asthma ([1]; compared to theophylline)	subjects dropped out of the study due to side effects [1] [%]	effect on Forced Expiratory Volume at 1 second (FEV1) and Forced Expiratory Flow at 0.75 seconds (FEF 0.75) [2]	patients treated in an emergency setting for overdose who die
Cn1c(=O)c2c(ncn2CC2OCCO2)n(C)c1=O [doxofylline, 7-(1,3-dioxolan-2-ylmethyl)-1,3-dimethylpurine-2,6-dione]	as effective as theophylline	11		
Cn1c(=O)c2[nH]cnc2n(C)c1=O [theophylline]		31	positive results	Ten
